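Compound exposure: 48 hours, 5 concentrations, 96-well plates. GI50 = concentration required for 50% inhibition of growth. TGI: total growth inhibition.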 Where only a bound is given, the exact number is not on record here.

What all share (assay): NCI anticancer screen, dose series, 48 h
The test system of test [1] is HCC-2998 colon.
Test [2] has as its system HOP-62 NSCLC.
For test [3], the system named is HT29 colon.
Test [4] relates to NCI-H460 lung.
Test [5] deals with NCI-H522 lung.
The test system of test [6] is SF-268 CNS.
In test [7] the test system is SK-MEL-28 melanoma.
Test [8] deals with U251 CNS.
The subject of test [9] is A549 NSCLC.
Test [10] relates to SK-MEL-5 melanoma.

`CCOC(=O)NC(Nc1ccc(Cl)cn1)(C(F)(F)F)C(F)(F)F`: the TGI in [1], in [2], in test [3], in test [4], in test [5] and in [6] was over 100 µM each time. Moreover, the TGI in test [7] and in test [8] was over 100 µM each time.
For the compound `O=C(O)Cn1c2c(c3c(O)cccc31)C(=O)c1ccccc1-2`, the GI50 in [9], in [1], in test [2], in test [3], in [4] and in test [5] was over 100 µM each time. For the same compound, the GI50 in test [6], in test [7], in [10] and in test [8] was over 100 µM in each case. Further, the TGI in [9], in test [1], in [2], in test [3], in test [4] and in test [5] was over 100 µM each time. Further, the TGI in [6], in test [7], in test [10] and in test [8] was over 100 µM throughout.
As for `CCCOC1OC(CS(=O)(=O)O)C(O)C(O)C1O` (stereo unspecified), the TGI in test [1], in test [2], in test [3], in [4], in test [7] and in [10] was over 100 µM in each case. In addition, in [8], the TGI is over 100 µM.
In the case of `CC(=O)N/C(=C\c1ccc(/C=C(\NC(C)=O)C2=NC3C(=O)c4ccccc4C(=O)C3N2)cc1)C1=NC2C(=O)c3ccccc3C(=O)C2N1` (stereo unspecified), the TGI in [3], in [4], in test [5], in [6], in [7] and in test [8] was over 100 µM in each case.
With `C=CCc1cccc(/C=N\N=C(/N)NO)c1O`, the TGI in test [9] is 29.1 µM; in [1] it was 33.1 µM; in [2], 7.08 µM; in test [3], over 58.5 µM; in test [4], 17.1 µM; in test [5], 10.6 µM. The TGI was over 100 µM in test [6], over 100 µM in test [7], 20.7 µM in test [10] and over 88.3 µM in test [8].
Turning to `CCCCN=C1OCc2[nH][nH]c(=O)c21`, the TGI in [9], in test [1], in test [2], in [3], in [4] and in [5] was over 100 µM each time. In addition, the TGI in test [6], in test [7], in test [10] and in test [8] was over 100 µM in each case.
For the compound `Cc1ccc(C2CC(c3cccc(Nc4ccncc4)c3)=NN2c2ccccc2)cc1` (stereo unspecified), the GI50 is 1.6 µM in test [1], 2.23 µM in test [3], 1.8 µM in [4] and 1.79 µM in test [10]. Further, the TGI in test [1] amounted to 2.96 µM; in test [3], 5.63 µM; in [4], 3.33 µM; in test [10], 3.24 µM.
Consider `CCCCCCCCCCCCCCCC(=O)OC1C(O)C(CO)OC(OC)C1NC(=O)N(CCCl)N=O` (stereo unspecified), for which the TGI in test [9] was found to be 23.8 µM; in test [2], 32.3 µM; in test [3], 26.8 µM; in [4], 17.6 µM; in test [5], 23.8 µM; in [6], 15.5 µM. Also, the TGI is 27.5 µM in test [7], 30.2 µM in [10] and 19.9 µM in [8].
For `O=[As](O)(O)c1ccc2nc3cc([As](=O)(O)O)ccc3nc2c1`, the TGI in test [9], in [1], in test [2], in [3], in test [4] and in [5] was over 100 µM in each case. The TGI in test [6], in test [7], in test [10] and in test [8] was over 100 µM throughout.
As to `C[C@]12CC[C@@H]3c4ccc(OCCN5CCCC5)cc4CC[C@H]3[C@@H]1CCC2=O`, the TGI in [9] was over 100 µM; in [1], 25.1 µM; in test [2], 44.5 µM; in test [3], over 100 µM; in [4], 53.9 µM; in test [7], over 100 µM. Moreover, the TGI was 30 µM in test [10] and over 100 µM in test [8].

(Values after PubChem BioAssay (NCI).)
